28 molecules from patent US6756382B2, “Amide substituted imidazoquinolines” (3M Innovative Properties Company, priority 1999, dated 2004) can be followed below.

Structures can show the parent of a compound that is named as a salt.

Tested on in one series: not given
Test: not given
Conditions: not given
Turning to `Nc1nc2ccccc2c2c1ncn2CCCCCNC(=O)c1ccccc1` (as salt: hydrochloride) [Example 10, N^1-[5-(4-Amino-1H-imidazo[4,5-c]quinolin-1-yl)pentyl]benzamide Hydrochloride], the melting point (in general, the temperature, or range, at which the solid turns liquid) lay in the range of 217 to 219 °C. On the same count and under the same terms, for `Nc1nc2ccccc2c2c1ncn2CCCNC(=O)c1ccccc1` (as salt: hydrochloride) [Example 11, N^1-[3-(4-Amino-1H-imidazo[4,5-c]quinolin-1-yl)propyl]benzamide Hydrochloride] the value was 265 to 270 °C; for `CCOCc1nc2c(N)nc3ccccc3c2n1CCNC(=O)CCCCC1SCC2NC(=O)NC21` (stereo not shown) (as salt: trifluoroacetate) [Example 29, N^1-[2-(4-Amino-2-(ethoxymethyl)-1H-imidazo[4,5-c]quinolin-1-yl)ethyl]-5-(2-oxoperhydrothieno[3,4-d]imidazol-4-yl)pentanamide Ditrifluoroacetate], 171 to 175 °C. Same read-out and setting: for `Cl.Nc1nc2ccccc2c2c1ncn2CCCCNC(=O)c1ccccc1.O` (hydrate or solvate) the value was 254 to 256 °C. The same measure, in the same setting: for `Nc1nc2ccccc2c2c1ncn2CCCCNC(=O)c1cn(Cc2ccccc2)c2ccccc12` [Example 42, N^3-[4-(4-Amino-1H-imidazo[4,5-c]quinolin-1-yl)butyl]-1-benzyl-1H-3-indolecarboxamide] the value was 139 °C (dec.); for `Nc1nc2ccccc2c2c1ncn2CCCCNC(=O)c1cccnc1` [Example 47, N^3-[4-(4-Amino-1H-imidazo[4,5-c]quinolin-1-yl)butyl]nicotinamide], 188.6 to 189.5 °C; for `Nc1nc2ccccc2c2c1ncn2CCCCNC(=O)c1ccncc1` [Example 48, N^4-[4-(4-Amino-1H-imidazo[4,5-c]quinolin-1-yl)butyl]isonicotinamide], 213 to 213.7 °C. The molecule `Nc1nc2ccccc2c2c1ncn2CCCCNC(=O)c1ccnc2ccccc12` [Example 49, N^4-[4-(4-Amino-1H-imidazo[4,5-c]quinolin-1-yl)butyl]-4-quinolinecarboxamide] came in with a melting point of 214.5 to 215.2 °C. In the case of `COCCc1nc2c(N)nc3ccccc3c2n1CCCCNC(=O)c1cc(-c2ccccc2)nc2ccccc12` [Example 50, N^4-[4-(4-Amino-2-(2-methoxyethyl)-1H-imidazo[4,5-c]quinolin-1-yl)butyl]-2-phenyl-4-quinolinecarboxamide], the melting point is 118 °C (dec.). The same measure, in the same setting: for `CCCCCSc1ncccc1C(=O)NCCCCn1cnc2c(N)nc3ccccc3c21` [Example 51, N^3-[4-(4-Amino-1H-imidazo[4,5-c]quinolin-1-yl)butyl]-2-(pentylsulfanyl)nicotinamide] the value was 158 to 161 °C. Same read-out and setting: for `N#Cc1ccc(C(=O)NCCCCn2cnc3c(N)nc4ccccc4c32)cn1` [Example 52, N^3-[4-(4-Amino-1H-imidazo[4,5-c]quinolin-1-yl)butyl]-6-cyanonicotinamide] the value was 125 to 129 °C. Still for that read-out and setting: for `Nc1nc2ccccc2c2c1ncn2CCCCNC(=O)c1ccc(Cl)nc1` [Example 53, N^3-[4-(4-Amino-1H-imidazo[4,5-c]quinolin-1-yl)butyl]-6-chloronicotinamide] the value was 144 to 148 °C (dec.); for `Nc1nc2ccccc2c2c1ncn2CCCCNC(=O)c1ccc(OCC(F)(F)F)nc1` [Example 54, N^3-[4-(4-Amino-1H-imidazo[4,5-c]quinolin-1-yl)butyl]-6-(2,2,2-trifluoroethoxy)nicotinamide], 192 to 194 °C (dec.); for `COCCc1nc2c(N)nc3ccccc3c2n1CCCCNC(=O)c1ccc2ccccc2n1` [Example 55, N^2-{4-[4-Amino-2-(2-methoxyethyl)-1H-imidazo[4,5-c]quinolin-1-yl]butyl}-2-quinolinecarboxamide], 78.1 to 79.9 °C.

In turn, `CC(C(=O)NCCCCn1cnc2c(N)nc3ccccc3c21)c1ccc(-c2ccccc2)c(F)c1` (stereo not shown) [Example 56, N^1-[4-(4-Amino-1H-imidazo[4,5-c]quinolin-1-yl)butyl]-2-(2-fluoro-4-biphenylyl)propanamide] yielded a melting point of 76.1 to 79.9 °C. Same read-out and setting: as for `COCCc1nc2c(N)nc3ccccc3c2n1CCCCNC(=O)c1nccc2ccccc12` [Example 57, N^1-{4-[4-Amino-2-(2-methoxyethyl)-1H-imidazo[4,5-c]quinolin-1-yl]butyl}-1-isoquinolinecarboxamide], the figure is 61 to 63 °C; as for `CCCCc1ccc(C(=O)NCCCCn2c(CCOC)nc3c(N)nc4ccccc4c32)nc1` [Example 58, N^2-{4-[4-Amino-2-(2-methoxyethyl)-1H-imidazo[4,5-c]quinolin-1-yl]butyl}-5-butyl-2-pyridinecarboxamide], 54.9 to 55.2 °C; as for `COCCc1nc2c(N)nc3ccccc3c2n1CCCCNC(=O)c1c[nH]c2ccccc12` [Example 59, N^3-{4-[4-Amino-2-(2-methoxyethyl)-1H-imidazo[4,5-c]quinolin-1-yl]butyl}-3-indolecarboxamide], 225.5 to 227.4 °C. On to `COCCc1nc2c(N)nc3ccccc3c2n1CCCCNC(=O)c1ccc(-n2cccc2)cc1` [Example 60, N^1-{4-[4-Amino-2-(2-methoxyethyl)-1H-imidazo[4,5-c]quinolin-1-yl]butyl}-4-(1-pyrrolyl)benzamide], for which the melting point was in the range of 173 to 174.9 °C. The same measure, in the same setting: for `COc1ccc(Cc2nc3c(N)nc4ccccc4c3n2CCCCNC(=O)c2ccc3ccccc3n2)cc1` [Example 61, N^2-{4-[4-Amino-2-(4-methoxybenzyl)-1H-imidazo [4,5-c]quinolin-1-yl]butyl}-2-quinolinecarboxamide] the value was 95.1 to 97.4 °C; for `Nc1nc2ccccc2c2c1ncn2CCCCNC(=O)c1ccc(Oc2ccccc2)cc1` [Example 64, N^1-[4-(4-Amino-1H-imidazo[4,5-c]quinolin-1-yl)butyl]-4-phenoxybenzamide], 90.5 to 91.5 °C; for `COCCc1nc2c(N)nc3ccccc3c2n1CCCCNC(=O)c1cncc(C#Cc2ccccc2)c1` [Example 65, N^5-{4-[4-Amino-2-(2-methoxyethyl)-1H-imidazo[4,5-c]quinolin-1-yl]butyl}-5-(2-phenyl-1-ethynyl)nicotinamide], 76 to 78 °C. Same read-out and setting: as for `Nc1nc2ccccc2c2c1nc(-c1ccccc1)n2CCCCNC(=O)c1cccnc1` [Example 66, N^3-[4-(4-Amino-2-phenyl-1H-imidazo[4,5-c]quinolin-1-yl)butyl]nicotinamide], the figure is 84.5 to 86.1 °C; as for `Nc1nc2ccccc2c2c1nc(-c1ccccc1)n2CCCCNC(=O)c1ccc2ccccc2n1` [Example 67, N^2-[4-(4-Amino-2-phenyl-1H-imidazo[4,5-c]quinolin-1-yl)butyl]-2-quinolinecarboxamide], 81.1 to 83.9 °C; as for `Nc1nc2ccccc2c2c1nc(CCCOc1ccccc1)n2CCCNC(=O)c1ccc(Br)cc1` [Example 193, N-{3-[4-amino-2-(3-phenoxypropyl)-1H-imidazo[4,5-c]quinolin-1-yl]propyl}-4-bromobenzamide], 186.2 to 186.7 °C.

The test system of a further series is tumor necrosis factor (α). As to the kind of experiment: Cytokine induction in human cells: tumor necrosis factor (α) secreted by PBMCs, ELISA. Format: cell-based. The following applies: PBMC, incubated 18 to 24 hours, TNF determined by ELISA, read-out: Lowest Effective Concentration (μM) Tumor Necrosis Factor. The source says:
(§1) An in vitro human blood cell system was used to assess cytokine induction by compounds of the invention. Activity is based on the measurement of interferon and tumor necrosis factor (α) (IFN and TNF, respectively) secreted into culture media as described by Testerman et. al. In “Cytokine Induction by the Immunomodulators Imiquimod and S-27609”, Journal of Leukocyte Biology, 58, 365-372 (September, 1995).
(§2) Whole blood is collected by venipuncture into EDTA vacutainer tubes from healthy human donors. Peripheral blood mononuclear cells (PBMCs) are separated from whole blood by density gradient centrifugation using Histopaque®-1077 (Sigma Chemicals, St. Louis, Mo.). The PBMCs are suspended at 3-4×10^6 cells/mL in RPMI 1640 medium containing 10% fetal bovine serum, 2 mM L-glutamine and 1% penicillin/streptomycin solution (RPMI complete). The PBMC suspension is added to 48 well flat bottom sterile tissue culture plates (Costar, Cambridge, Mass. or Becton Dickinson Labware, Lincoln Park, N.J.) containing an equal volume of RPMI complete media containing test compound.
(§3) The compounds are solubilized in dimethyl sulfoxide (DMSO). The DMSO concentration should not exceed a final concentration of 1% for addition to the culture wells.
(§4) The solution of test compound is added at 60 μM to the first well containing RPMI complete and serial (three fold or ten fold) dilutions are made. The PBMC suspension is then added to the wells in an equal volume, bringing the test compound concentrations to the desired range. The final concentration of PBMC suspension is 1.5-2×10^6 cells/mL. The plates are covered with sterile plastic lids, mixed gently and then incubated for 18 to 24 hours at 37° C. in a 5% carbon dioxide atmosphere.
(§5) Following incubation the plates are centrifuged for 5-10 minutes at 1000 rpm (˜200×g) at 4° C. The cell culture supernatant is removed with a sterile polypropylene pipet and transferred to sterile polypropylene tubes. Samples are maintained at −30 to −70° C. until analysis. The samples are analyzed for interferon (α) by either ELISA or bioassay and for tumor necrosis factor (α) by ELISA.
Tumor necrosis factor (α) (TNF)concentration is determined using ELISA kits available from Genzyme, Cambridge, Mass.; R&D Systems, Minneapolis, Minn.; or Pharmingen, San Diego, Calif.
(§6) The table below lists the lowest concentration found to induce interferon and the lowest concentration found to induce tumor necrosis factor for each compound. […] Unless otherwise indicated, the interferon biosynthesis was determined by ELISA.
Background: ELISA stands for enzyme-linked immunosorbent assay.
`COCCc1nc2c(N)nc3ccccc3c2n1CCCCNC(=O)[C@H]1CC(=O)N(C)[C@@H]1c1cccnc1` [Example 184, (2S,3S)-N-{4-[4-amino-2-(2-methoxyethyl)-1H-imidazo[4,5-c]quinolin-1-yl]butyl}-1-methyl-5-oxo-2-pyridin-3-ylpyrrolidine-3-carboxamide]: the minimal effective concentration turned out to be 1.11 µM. Still for that read-out and setting: as for `CCCCc1nc2c(N)nc3ccccc3c2n1CCCNC(=O)c1cc2ccccc2cn1` [Example 188, N-[3-(4-amino-2-butyl-1H-imidazo[4,5-c]quinolin-1-yl)propyl]isoquinoline-3-carboxamide], the figure is 1.11 µM.

Take `Nc1nc2ccccc2c2c1ncn2CCCCCCCCNC(=O)c1ccccc1` [Example 191, N-[8-(4-amino-1H-imidazo[4,5-c]quinolin-1-yl)octyl]benzamide]: the minimal effective concentration was over 30 µM.

Another series relates to interferon (α). As to the kind of experiment: Cytokine induction in human cells: interferon secreted by PBMCs, ELISA. The series is classed as cell-based. The following applies: PBMC, incubated 18 to 24 hours, interferon determined by ELISA, read-out: Lowest Effective Concentration (μM) Interferon.
Text: as §1, §2, §3, §4, §5
Interferon (α) concentration is determined by ELISA using a Human Multi-Species kit from PBL Biomedical Laboratories, New Brunswick, N.J.
as §6
With `COCCc1nc2c(N)nc3ccccc3c2n1CCCCNC(=O)[C@H]1CC(=O)N(C)[C@@H]1c1cccnc1` [Example 184, (2S,3S)-N-{4-[4-amino-2-(2-methoxyethyl)-1H-imidazo[4,5-c]quinolin-1-yl]butyl}-1-methyl-5-oxo-2-pyridin-3-ylpyrrolidine-3-carboxamide], the minimal effective concentration amounted to 0.12 µM. Same read-out and setting: for `CCCCc1nc2c(N)nc3ccccc3c2n1CCCNC(=O)c1cc2ccccc2cn1` [Example 188, N-[3-(4-amino-2-butyl-1H-imidazo[4,5-c]quinolin-1-yl)propyl]isoquinoline-3-carboxamide] the value was 0.37 µM; for `Nc1nc2ccccc2c2c1ncn2CCCCCCCCNC(=O)c1ccccc1` [Example 191, N-[8-(4-amino-1H-imidazo[4,5-c]quinolin-1-yl)octyl]benzamide], over 30 µM.
